From patent US20050106276A1, “Pharmaceutical composition made from Chinese traditional medecine and method of producing thereof” (Jiangsu Kanion Pharmaceutial Co. Ltd., priority 2001, published 2005)
Where a name gives a salt, the structure may show the parent alone.

Key:
[1] = tested on: experimental mice with hyperglycaemia; test: blood glucose value of mice with hyperglycaemia lead by Streptozocin; assay type: in vivo, mouse; conditions: Streptozocin mice serum
Procedure: 100 male mice, weighting 25˜30 g, were given Streptozocin on the dosage of 180 mg/kg by intraperitoneal injection. taking blood from eye sockets of the survivals 72 hours later, using evaluate kit evaluated serum glucose, select 40 mice with hyperglycosemia whose serum glucose value is 18˜33 mmol/L, Which were randomly divided into 4 groups: Model group, Positive medicine Phenformin group, High and low dose of invented capsule group. All mice were intragastric administration 1 time each day in 10 days; Take another 10 mice as normal control group. All mice were fasting diet 12 hours after last administration, then taking blood from eye sockets, separating blood serum, using evaluate kit evaluated serum glucose value with Glucose enzymic method, then using t-value method to compare the significance with model group.

[2] = tested on: experimental rats with hyperglycaemia; test: blood glucose value of rats with hyperglycaemia lead by alloxan; assay type: in vivo, rat; conditions: alloxan rats serum
Procedure: 160 male rats, weighting 200˜250 g, were given alloxan on the dosage of 200 mg/kg by intraperitoneal injection. taking blood from eye sockets of the survivals 72 hours later, using evaluate kit evaluated serum glucose, select 40 rats with hyperglycosemia whose serum glucose value is 20˜25 mmol/L, Which were randomly divided into 4 groups: Model group, Positive medicine Phenformin group, High and low dose of invented capsule group. All rats were intragastric administration 1 time each day in 10 days; Take another 10 mice as normal control group. All mice were fasting diet 12 hours after last administration, then taking blood from eye sockets, separating blood serum, using evaluate kit evaluated serum glucose value with Glucose enzymic method, then using t-value method to compare the significance with model group.

[3] = 0.1 g/kg intragastric daily 10 days

[H]/N=C(/N)N/C(=N/[H])NCCc1ccccc1 [Phenformin, Phenformin Hydrochloride]
GLU After administration [1, 3]: 12.51 ± 6.93 mmol/L
GLU Before administration ([1]; baseline of 0.1 g/kg group): 25.43 ± 3.93 mmol/L
GLU After administration [2, 3]: 14.52 ± 4.99 mmol/L
GLU Before administration ([2]; baseline of 0.1 g/kg group): 22.72 ± 1.53 mmol/L
